Measurements: US20180244653A1, “SELECTIVE ALPHA-7 NICOTINIC RECEPTOR AGONISTS AND METHODS FOR MAKING AND USING THEM” (THE REGENTS OF THE UNIVERSITY OF CALIFORNIA, priority 2015, published 2018)
Several values for one entry are separate records, joined by “and”; a condition that tells them apart may be missing. Identical values can stand only once. Entries after “also recorded” stand apart in the source; their conditions may differ. Like-named read-outs stand apart in the source and are kept apart here.

How the values were obtained:
[1] = biological target: T1, 5HT3A receptors (Mus musculus, UniProt P23979); assay: Intact cell competitive radioligand binding assay ([3H]-granisetron, SPA), LGIC-CNiFERs; details: >10 = did not pass initial screen at 10 μM; read-out: Kd ± SD, 5HT3A
T1 construct: expressed in transfected cells; host or cells: HEK293 cells co-expressing TN-XXL
T1 sequence (P23979 24-489): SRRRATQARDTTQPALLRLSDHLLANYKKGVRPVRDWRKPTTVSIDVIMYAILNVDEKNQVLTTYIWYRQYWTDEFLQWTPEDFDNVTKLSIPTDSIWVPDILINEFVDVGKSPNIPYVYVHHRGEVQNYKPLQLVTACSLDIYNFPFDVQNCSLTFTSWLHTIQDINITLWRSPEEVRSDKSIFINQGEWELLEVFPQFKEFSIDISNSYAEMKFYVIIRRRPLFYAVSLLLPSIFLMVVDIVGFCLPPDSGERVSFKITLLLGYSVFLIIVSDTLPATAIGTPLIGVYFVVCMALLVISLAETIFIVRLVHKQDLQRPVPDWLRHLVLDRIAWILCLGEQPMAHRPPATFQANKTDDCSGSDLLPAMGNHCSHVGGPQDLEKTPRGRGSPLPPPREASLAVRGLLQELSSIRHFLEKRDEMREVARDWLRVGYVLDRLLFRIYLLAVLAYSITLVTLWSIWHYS

[2] = biological target: T1, 5HT3A receptors; assay: FRET functional assay (agonist/antagonist) using LGIC-CNiFERs; type: cell-based; details: for EC50: * partial agonist, read-out: Agonist EC50 ± SD, 5HT3A; for Functional properties at 5HT3A receptors (agonist / antagonist, type): functional screening and characterization
[3] = biological target: T2, α4β2-nAChRs (Homo sapiens, UniProt P17787+P43681); assay: as above; type: cell-based; details: for EC50: read-out: EC50 ± SD, α4β2; for Functional properties at α4β2-nAChRs (agonist / antagonist, type): functional screening and characterization
T2 construct: expressed in transfected cells; host or cells: HEKtsA201 cells co-expressing TN-XXL
T2 sequence (P43681 29-627 limits assumed): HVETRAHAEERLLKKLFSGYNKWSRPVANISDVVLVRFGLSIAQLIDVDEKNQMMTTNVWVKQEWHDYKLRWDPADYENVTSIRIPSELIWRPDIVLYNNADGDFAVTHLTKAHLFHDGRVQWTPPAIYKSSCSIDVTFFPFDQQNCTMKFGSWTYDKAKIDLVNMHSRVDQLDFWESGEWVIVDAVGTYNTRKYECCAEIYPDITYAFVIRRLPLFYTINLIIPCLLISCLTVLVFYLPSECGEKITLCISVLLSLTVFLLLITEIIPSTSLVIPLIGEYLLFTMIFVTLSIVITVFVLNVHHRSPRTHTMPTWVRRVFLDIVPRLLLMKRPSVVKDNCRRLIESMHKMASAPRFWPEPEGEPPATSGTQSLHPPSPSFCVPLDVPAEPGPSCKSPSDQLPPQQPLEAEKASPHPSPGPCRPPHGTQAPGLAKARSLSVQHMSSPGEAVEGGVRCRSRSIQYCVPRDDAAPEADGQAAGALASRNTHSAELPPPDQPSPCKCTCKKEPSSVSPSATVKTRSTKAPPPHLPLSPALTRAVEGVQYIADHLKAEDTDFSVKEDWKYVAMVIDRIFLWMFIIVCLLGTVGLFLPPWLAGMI
T2 sequence (P17787 26-502): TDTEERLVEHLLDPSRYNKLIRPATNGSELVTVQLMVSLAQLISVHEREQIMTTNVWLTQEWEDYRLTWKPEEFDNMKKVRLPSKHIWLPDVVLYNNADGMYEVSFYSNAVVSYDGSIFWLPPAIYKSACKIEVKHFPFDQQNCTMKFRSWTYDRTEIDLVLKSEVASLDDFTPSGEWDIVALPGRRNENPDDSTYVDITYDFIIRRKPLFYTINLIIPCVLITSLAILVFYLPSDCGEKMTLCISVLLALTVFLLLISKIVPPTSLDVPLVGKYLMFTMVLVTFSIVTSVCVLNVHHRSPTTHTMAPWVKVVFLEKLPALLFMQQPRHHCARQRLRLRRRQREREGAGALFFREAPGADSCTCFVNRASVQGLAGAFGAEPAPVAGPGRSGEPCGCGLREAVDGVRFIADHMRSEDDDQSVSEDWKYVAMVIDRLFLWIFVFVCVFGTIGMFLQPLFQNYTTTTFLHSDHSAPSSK

[4] = biological target: T3, α7-nAChRs (Homo sapiens, UniProt P36544); assay: as above; type: cell-based
T3 construct: expressed in transfected cells; host or cells: HEKtsA201 cells co-expressing TN-XXL
T3 sequence (P36544 23-502): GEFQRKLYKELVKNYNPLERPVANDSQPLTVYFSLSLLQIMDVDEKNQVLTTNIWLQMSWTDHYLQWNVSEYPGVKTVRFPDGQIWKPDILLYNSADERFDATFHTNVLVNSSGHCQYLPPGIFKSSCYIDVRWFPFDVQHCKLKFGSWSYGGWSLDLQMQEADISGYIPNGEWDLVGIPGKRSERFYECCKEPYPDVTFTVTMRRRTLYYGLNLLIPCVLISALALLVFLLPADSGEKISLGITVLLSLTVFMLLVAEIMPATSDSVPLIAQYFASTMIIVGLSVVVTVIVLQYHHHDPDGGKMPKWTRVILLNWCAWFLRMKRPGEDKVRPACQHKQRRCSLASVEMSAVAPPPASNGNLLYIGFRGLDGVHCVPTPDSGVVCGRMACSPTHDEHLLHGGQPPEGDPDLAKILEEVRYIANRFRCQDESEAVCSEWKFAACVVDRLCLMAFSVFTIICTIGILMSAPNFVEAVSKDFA

[5] = system: physiologically induced amnesia mice; assay: ORT time delay with MLA pretreatment (mechanism of action); type: in vivo; details: MLA 3 mg/kg 5 min before test compound 10 μmol/kg
Method: Methyllycaconitine (MLA) was injected to block the α7-nAChR agonist response. The ORT in natural memory loss mice described above was the study model. […] Each mouse was allowed to explore an open field apparatus for 5 min in a habituation phase. After 24 hours, MLA (3 mg/kg) was injected 5 min before injection of test compounds. After 1 h of injected test compounds, each mouse explored 2 identical objects in the sample phase for 5 min. On the next day, one of the objects was changed to a new one and the mouse was allowed to explore these objects for 5 min. The exploration time of these objects was recorded.
FIG. 30 illustrates discrimination index (TN−TF/TN+TF) of each compound in the test phase of ORT for proving mechanism of action.
For dose finding protocol, the mice were randomly divided into different treatment groups, a control group receiving a vehicle and tested groups receiving PNU-282987 at 3, 10 mg/kg, and IND8, QND8 for 10, 25 μmol/kg, single dose. They were allowed to freely explore the open field apparatus for 5 min for habituation in a day before the experiment (day 1). On the test day (day 2), the test compound was injected 1 h before the sample phase. In this phase, mice were placed in the apparatus to explore two identical objects. On the next day (day 3), one object was changed to a new one and mice were allowed to explore these objects for 5 min in the test phase. […] The exploration time of each object was recorded if the nose of mouse came within 3 cm or touched the objects. The discrimination index (DI) was calculated by using (TN−TF)/(TN+TF); TN and TF represented exploration time of new and familiar objects, respectively.

[6] = biological target: α7/5HT3A chimera receptor (hα7/m5HT3A), used for α7-nAChRs (UniProt P23979+P36544, M226I/T225I); assay: Intact cell competitive radioligand binding assay ([3H]-(±)-epibatidine, SPA), LGIC-CNiFERs; details: read-out: Kd ± SD, α7-nAChRs; >10 = did not pass initial screen at 10 μM
Sequence of α7/5HT3A chimera receptor (hα7/m5HT3A), used for α7-nAChRs (P36544+P23979 fused P36544:T225I/P36544:M226I): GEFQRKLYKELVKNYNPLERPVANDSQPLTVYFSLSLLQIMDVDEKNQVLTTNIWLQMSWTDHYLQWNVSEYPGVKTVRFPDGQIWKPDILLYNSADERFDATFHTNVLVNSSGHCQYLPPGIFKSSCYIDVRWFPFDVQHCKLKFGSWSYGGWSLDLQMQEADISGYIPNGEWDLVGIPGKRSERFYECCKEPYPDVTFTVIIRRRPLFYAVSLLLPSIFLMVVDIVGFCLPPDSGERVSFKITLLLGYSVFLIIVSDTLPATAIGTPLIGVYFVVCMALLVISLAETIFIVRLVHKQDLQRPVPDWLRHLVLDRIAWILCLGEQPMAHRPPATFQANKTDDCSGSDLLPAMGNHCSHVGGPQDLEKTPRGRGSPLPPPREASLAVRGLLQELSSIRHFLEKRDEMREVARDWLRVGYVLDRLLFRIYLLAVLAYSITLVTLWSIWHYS
Method: All synthesized compounds were screened for the binding potential with cell based neurotransmitter fluorescent engineered reporters (CNiFERs) expressed α7-nAChRs, α4β2-nAChRs, and 5HT3A receptors. The whole cell binding assay was performed by competitive radioligand binding assay (RBA) using [^3H]-(±)-epibatidine for α7- and α4β2-nAChRs and [^3H]-granisetron for 5HT3A receptors. […] Compounds at 10 μM concentration that dissociated [^3H]-(±)-epibatidine or [^3H]-granisetron binding to LGIC-CNiFERs more than 50% were further determined over a range of concentrations for Kd values.
Cell lines expressing specific subtypes of receptors and a genetically encoded fluorescence resonance energy transfer (FRET)-based calcium sensor (TN-XXL) were prepared^29. The human α7-nAChRs and α4β2-nAChRs were expressed in HEKtsA201 cells, whereas hα7/m5HT3A chimeric receptors and mouse 5HT3A receptors were expressed in HEK293 cells. Cells were cultured in DMEM (Corning, Cellgro, Manassas, Va.) supplemented with 10% FBS (Gibco, Life Technologies, Grand Island, N.Y.) and 1% glutamine (Gibco, Life Technologies, Grand Island, N.Y.) and incubated at 37° C. with 10% CO2.
Cell based neurotransmitter fluorescent engineered reporters (CNiFERs) expressing Ca^2+ permeable LGIC receptors were used to determine the Kd values of the compounds. Cells were harvested by centrifugation (Beckman coulter, Brea, Calif.) at 500 rpm for 5 min, and then mixed and incubated on ice for 30 min, after counting, with Wheat Germ Agglutinin SPA beads (20 mg/mL) (Perkin Elmer, Waltham, Mass.) in Hank's Balanced Salt Solution (HBSS) (Gibco, Life Technologies, Grand Island, N.Y.) at the specified concentrations: 1) hα7/m5HT3A chimera-TN-XXL: 200K cells/well, 1 mg/mL SPA beads 2) hα4β2-TN-XXL: 100K cells/well, 0.5 mg/mL SPA beads, and 3) m5HT3A-TN-XXL: 100K cells/well, 1 mg/mL SPA beads. The compounds were initially screened at 10 μM final concentration. Nonspecific binding was measured by using 100 μM of MLA (Tocris Bioscience, Bristol, UK) for α7/5HT3A chimeric receptors, 10 μM of varenicline (Tocris Bioscience, Bristol, UK) for α4β2-nAChR, and 300 nM of tropisetron (Tocris Bioscience, Bristol, UK) for 5HT3A receptors. After that, the radioactive ligands were added at nM final concentration of [^3H]-(±)-epibatidine for α7/5HT3A chimeric receptors, 5 nM of [^3H]-(±)-epibatidine for α4β2-nAChR, and 10 nM of [^3H]-granisetron for 5HT3A receptors. The mixtures were measured on the Wallac 1450 MicroBeta® Trilux with 1 h intervals for a total of measurements. […] Mean Kd values and standard deviations were calculated from at least 3 independent experiments.

[7] = >10 = did not pass initial screen
[8] = in presence of 10 μM PNU-120596, * partial agonist, >10 = did not pass initial screen, read-out: Agonist EC50 ± SD, α7

| Structure (SMILES) | Kd [1] | 5HT3A agonistic properties relative to α7-nAChR agonistic effect [2] | EC50 [2, 7] [nM] | Functional properties at 5HT3A receptors (agonist / antagonist, type) [2] | EC50 [3, 7] [nM] | Kd ([3]; competitive antagonist (^C), >10 = did not pass initial screen, vs (±)-epibatidine, read-out: Antagonist KA ± SD, α4β2) [nM] | Functional properties at α4β2-nAChRs (agonist / antagonist, type) [3] | Fold increase in α7-nAChR agonist potency over lead compound TTIn-1 [4] [fold] | EC50 [4, 8] | Cognitive enhancement after MLA pretreatment, ORT time delay [5] | Kd [6] | Kd ([2]; Antagonist KA ± SD, 5HT3A, competitive antagonist (^C), >10 = did not pass initial screen, vs 5-HT) [nM] | Kd ([3]; Antagonist KA ± SD, α4β2, competitive antagonist (^C), >10 = did not pass initial screen, vs (±)-epibatidine) [nM] | EC50 ([4]; Agonist EC50 ± SD, α7) [nM] | Antagonist KA ± SD, α4β2 ([3]; competitive antagonist (^C), >10 = did not pass initial screen, vs (±)-epibatidine) |
| --- | --- | --- | --- | --- | --- | --- | --- | --- | --- | --- | --- | --- | --- | --- | --- |
| c1cc2cc(-c3cn(C4CN5CCC4CC5)nn3)ccc2[nH]1 (stereo not drawn) [IND8, 5-((Quinuclid-3-yl)-1H-1,2,3-triazol-4-yl)-1H-indole] | 50 nM and 52 nM | seven fold lower | 210 | agonistic properties; also recorded: partial agonist | > 10000 | >10000 | did not elicit agonist or antagonist properties | 20 | 30 nM and 28 nM | complete abolition of the cognitive enhancement; also recorded: abolished by MLA | 120 nM |  |  |  |  |
| O=C(N[C@H]1CN2CCC1CC2)c1ccc(Cl)cc1 [PNU-282987, reference compound] | > 10000 nM |  |  |  | > 10000 |  |  |  |  | abolished by MLA | 270 ± 140 nM | 1200 | > 10000 | 110 ± 10 |  |
| Oc1ccc(-c2cn(C3CN4CCC3CC4)nn2)cc1 (stereo not drawn) [QND8, 3-(4-hydroxyphenyl-1,2,3-triazol-1-yl) quinuclidine] | 540 ± 50 nM |  | 900 ± 90 | 5HT3A receptor agonist properties |  |  | competitive antagonism | 20 | 40 nM and 37 nM | complete abolition of the cognitive enhancement; also recorded: abolished by MLA | 80 nM and 81 nM |  |  |  | 6.2 ± 1.7^C μM |
